Columns and labels:
Format in all cases: in vivo, Balb/c mice
peripheral blood cells [1] = experiment: Differential count in the blood; conditions: 100 μg/mouse, same groups as Example 8; Giemsa staining; control PBS; FIG. 3
Procedure: (§1) The control used is PBS. The dosages used are 100 μg/mouse.
(§2) One or other of a control, LAM5, LAM7, A0 or A2O were injected, by peritoneal route, into a group of Balb/c mice (Jackson laboratory, Bar Harbor, Me., USA). 24 hours after the injection the mice were sacrificed. The peripheral blood was recovered from the orbital plexus in heparin (5 IU/ml) (Sigma).
By using the same experimental groups as in Example 8, two additional microscope slides were prepared from each experimental sample. After Giemsa staining, the presence of individual types of cells i.e. monocytes, lymphocytes and granulocytes were evaluated for each slide with an optical microscope.

peritoneal cells [2] = experiment: Phagocytosis of HEMA particles by cells obtained from the peritoneal cavity after injection of the oligosaccharide; conditions: 100 μg/mouse intraperitoneal, after 24 hours, control PBS, cells with at least six HEMA particles positive, FIG. 2
Procedure: as §1
One or other of a control, LAM7, LAM5, A0 or A2 were injected, by intraperitoneal route, into a group of Balb/c mice (Jackson laboratory, Bar Harbor, Me., USA).
After 24 hours, the mice were sacrificed, the peritoneal cells were collected in a Hanks medium (Sigma).
After counting of the cells in a haemocytometer, the peritoneal cells were diluted to 1×10^7 in an RPMI 1640 medium (Sigma) with 5% foetal calf serum (Hyclone, Logan, Utah, USA). 2×10^6 cells in 0.2 ml of RPMI 1640 medium with 5% foetal calf serum added were mixed with the same volume of HEMA particles (5×10^8/ml).
The suspension was incubated for 60 minutes at 37° C. under occasional moderate stirring. The incubation was stopped by centrifugation (150 g for 5 minutes) and the pellet was replaced in suspension.
The macrophages with ingested particles were counted under an optical microscope in smears stained with Accustain (modified Wright stain, Sigma).
The cells surrounding at least six particles were considered as being positive.

peripheral blood cells [3] = experiment: Phagocytosis of HEMA particles by peripheral blood cells after injection of the oligosaccharide; conditions: 100 μg/mouse by peritoneal route, 24 hours after injection, control PBS, cells with at least three HEMA particles positive, FIG. 1
Procedure: as §1, §2
After counting, a test for phagocytosis of HEMA particles (synthetic microspheres prepared from 2-hydroxyethylmethacrylate copolymer) was carried out as described in: Rembaum et al., 1976, Vetvicka et al. 1982, Bilej et al., 1989. 0.1 ml of heparinized fresh blood was added to 0.05 ml of diluted HEMA particles (5×10^8/ml) and incubated for 60 minutes at 37° C. under occasional moderate stirring.
At the end of the incubation, the cell suspension was smeared onto microscope slides. The smears were evaluated under an optical microscope after Giemsa staining.
Cells surrounding at least three particles were considered to be positive.

peritoneal cells [4] = experiment: Differential count in the peritoneal cells; conditions: 100 μg/mouse, same groups as Example 8; Giemsa staining; control PBS; FIG. 4
Procedure: as §1
By using the same experimental groups as in Example 8, two additional microscope slides of each experimental sample were prepared. After Giemsa staining, the presence of individual types of cells i.e. macrophages, lymphocytes and mastocytes were evaluated for each slide with an optical microscope.

OC[C@H]1O[C@@H](O[C@@H]2[C@@H](O)[C@H](O[C@@H]3[C@@H](O)[C@H](O[C@@H]4[C@@H](O)[C@H](O[C@@H]5[C@@H](O)[C@H](O[C@@H]6[C@H](O)[C@H](O)O[C@H](CO)[C@H]6O)O[C@H](CO)[C@H]5O)O[C@H](CO)[C@H]4O)O[C@H](CO)[C@H]3O)O[C@H](CO)[C@H]2O)[C@H](O)[C@@H](O)[C@@H]1O [Product A2, β-D-glucopyranosyl-(1→3)-β-D-glucopyranosyl-(1→3)-β-D-glucopyranosyl-(1→3)-β-D-glucopyranosyl-(1→3)-β-D-glucopyranosyl-(1→3)-β-D-mannopyranose]
number of granulocytes in the peripheral blood (peripheral blood cells [1]): increase the number
number of monocytes in the peripheral blood (peripheral blood cells [1]): increase the number
phagocytosis in the granulocytes of peritoneal macrophages (peritoneal cells [2]): strongly stimulate phagocytosis
phagocytosis in the monocytes of peritoneal macrophages (peritoneal cells [2]): strongly stimulate phagocytosis
phagocytosis in the granulocytes (peripheral blood cells [3]): strongly stimulate phagocytosis
phagocytosis in the monocytes (peripheral blood cells [3]): strongly stimulate phagocytosis
number of granulocytes in the peritoneal cavity (peritoneal cells [4]): increase the number
number of monocytes in the peritoneal cavity (peritoneal cells [4]): increase the number
